Entries after “also recorded” stand apart in the source; their conditions may differ.
What was measured:
[1] = tested on: HN5 cells; experiment: Intracellular localization of cGNR by TEM; type: cell-based; conditions: TEM 24 hrs after cGNRs, inhibitor for 1 hr
From the text: (§1) FIGS. 5A-5G: Blocking endocytosis steps modulates radiosensitization by cGNRs. […] The radiation dose enhancement factor (DEF) at 10% cell survival was cGNR—1.08, CPZ+cGNR—1.005, BAF-A1+cGNR—1.19, LAC+cGNR—1.16, and CHQ+cGNR—1.20. (B) Intracellular localization cGNR in HN5 cells imaged by TEM 24 hrs after treatment with cGNRs in the presence of (a) PBS, (b) CPZ, (c) BAF-A1, (d) LAC or (e) CHQ for 1 hr. […] (E) Reactive oxygen species measured by CellROX assay kit following treatment of HN5 cells with 2 Gy radiation in the absence or presence of specific inhibitors of internalization with and without cGNRs. […] (F) Elemental gold content of cells analyzed by inductively coupled plasma mass spectrometry.
(§2) To study the effect of each step of cGNR internalization on radiosensitization, each step of the endocytotic pathway (energy-dependent receptor-mediated endocytosis, early endosomal entrapment, stasis in the late endosomal compartment, and endolysosomal fusion) was blocked using pharmacologic inhibitors in HN5 cells.

[2] = tested on: HN5 cells; experiment: Elemental gold content of cells by ICP-MS; type: cell-based; conditions: 24 h treatment
From the text: as §1

[3] = tested on: HN5 cells; experiment: Reactive oxygen species by CellROX assay kit; type: cell-based; conditions: 2 Gy radiation, with cGNRs, with or without inhibitors
From the text: as §1

[4] = tested on: HN5 cells; experiment: Micronuclei per 1000 binucleated cells; type: cell-based; conditions: cGNRs 24 hrs and radiation, inhibitor pretreatment 1 hr
From the text: as §1
FIG. 10A-10C: Number of micronuclei per 1000 binucleated cells broken down as (A) one, (B) two, or (C) multiple. Cells were treated with cGNRs and radiation in the absence or presence of specific inhibitors of internalization.

[5] = tested on: HN5 cells; experiment: γ-H2AX foci formation (DNA damage); type: cell-based; conditions: inhibitor pretreatment, cGNR 24h, 2 Gy (250 kV, 15 mA)
From the text: as §1
Therefore, γ-H2AX was evaluated in HN5 cells pretreated with different pharmacological inhibitors and incubated with cGNR for 24h followed by 2 Gy of radiation (250 kV, 15 mA) (FIG. 5C).

[6] = tested on: HN5 cells; experiment: Clonogenic survival with inhibitors of endocytosis steps plus cGNR; type: cell-based; conditions: HN5, 250 kVp; inhibitor pre-treatment 1 hr, then cGNR 24 hr; CPZ 5 μg/ml, BAF-A1 100 nM, LAC 1 μM, CHQ 5 μM
From the text: as §1, §2

[7] = tested on: HN5 xenografts; experiment: Tumor regrowth delay of HN5 xenografts with radiation; type: in vivo, nu/nu mice; conditions: CHQ 6 hrs and 24 hrs before radiation, with cGNRs; p=0.02
From the text: as §1

With `CO/C1=C\C(C)=C\[C@@H](C)[C@@H](O)[C@@H](C)C/C(C)=C/C=C/[C@H](OC)[C@@H]([C@@H](C)[C@@H](O)[C@H](C)[C@@]2(O)C[C@@H](O)[C@H](C)[C@@H](C(C)C)O2)OC1=O` [bafilomycin A, bafilomycin A1] the “intracellular localization of cGNR” value [1] was “unclustered cGNRs”, the “cellular gold content / uptake of cGNR” value [2] was “no significant differences in the cellular uptake of cGNR” and the “cellular gold content / uptake of cGNR” value ([2]; listed as BAF-A1) was “no different”. For the same compound, the “intracellular reactive oxygen species” value [3] was “further enhanced the intracellular ROS”, the “intracellular reactive oxygen species” value ([3]; listed as BAF-A1) was “even greater enhancement of oxidative stress” and the “micronuclei per 1000 binucleated cells” value [4] was “significantly higher number of MNBC”. For the same compound, the “micronuclei per 1000 binucleated cells” value ([4]; listed as BAF-A1) was “enhancement in radiosensitization; also recorded: significant increase in radiation-induced micronuclei formation”, the “γ-H2AX foci / DNA damage” value [5] was “greatest increase in DNA damage” and the “γ-H2AX foci / DNA damage” value ([5]; listed as BAF-A1) was “increased foci formation”. The “γ-H2AX foci / DNA damage” value ([5]; listed as Bafilomycin) was “further enhanced the DNA damage” and the “radiation dose enhancement factor (DEF) at 10% cell survival” value [6] was 1.19.

For `CC(=O)N[C@@H](CSC(=O)[C@]1([C@@H](O)C(C)C)NC(=O)[C@H](C)[C@@H]1O)C(=O)O` [lactacystin], the “intracellular localization of cGNR” value [1] was “unclustered cGNRs”, the “cellular gold content / uptake of cGNR” value [2] was “no significant differences in the cellular uptake of cGNR” and the “cellular gold content / uptake of cGNR” value ([2]; listed as LAC) was “no different”. The “intracellular reactive oxygen species” value [3] was “further enhanced the intracellular ROS”, the “intracellular reactive oxygen species” value ([3]; listed as LAC) was “even greater enhancement of oxidative stress” and the “micronuclei per 1000 binucleated cells” value [4] was “significantly higher number of MNBC”. The “micronuclei per 1000 binucleated cells” value ([4]; listed as LAC) was “enhancement in radiosensitization; also recorded: significant increase in radiation-induced micronuclei formation”, the “γ-H2AX foci / DNA damage” value [5] was “further enhanced the DNA damage” and the “γ-H2AX foci / DNA damage” value ([5]; listed as LAC) was “increased foci formation”. For the same compound, the “radiation dose enhancement factor (DEF) at 10% cell survival” value [6] was 1.16.

For `CN(C)CCCN1c2ccccc2Sc2ccc(Cl)cc21` [chlorpromazine], the “intracellular localization of cGNR” value [1] was “blocked internalization of cGNRs”, the “cellular gold content / uptake of cGNR” value [2] was “significantly (p<0.001) inhibited the cellular uptake of cGNRs” and the “intracellular reactive oxygen species” value [3] was “reduced the intracellular ROS”. For the same compound, the “γ-H2AX foci / DNA damage” value [5] was “abrogated the effect of cGNR treatment”, the “γ-H2AX foci / DNA damage” value ([5]; listed as CPZ) was “not” and the “radiation dose enhancement factor (DEF) at 10% cell survival” value [6] was 1.005.

For `CCN(CC)CCCC(C)Nc1ccnc2cc(Cl)ccc12` (stereo not shown) [chloroquine], the “time to tumor volume quadrupling” value [7] was “statistically significant increase in time to tumor volume quadrupling”, the “intracellular localization of cGNR” value [1] was “unclustered cGNRs” and the “cellular gold content / uptake of cGNR” value [2] was “no significant differences in the cellular uptake of cGNR”. The “cellular gold content / uptake of cGNR” value ([2]; listed as CHQ) was “no different”, the “γ-H2AX foci / DNA damage” value [5] was “further enhanced the DNA damage” and the “γ-H2AX foci / DNA damage” value ([5]; listed as CHQ) was “increased foci formation”. The “radiation dose enhancement factor (DEF) at 10% cell survival” value [6] was 1.2.

From US20180250404A1, “HIGH-Z NANOPARTICLES AND THE USE THEREOF IN RADIATION THERAPY” (Board of Regents, The University of Texas System, priority 2015, published 2018)
